According to PMC3214968 (Journal of medicinal chemistry, 2011):

Assays:
[1] = molecular target: T1, matriptase zymogen activation (Homo sapiens, UniProt Q9Y5Y6); test: Cell-based, ELISA-like matriptase activation assay; details: 184 A1N4 cells, pH 6.0 buffer, 20 min, ELISA-like assay and immunoblot
T1 sequence (Q9Y5Y6 1-855): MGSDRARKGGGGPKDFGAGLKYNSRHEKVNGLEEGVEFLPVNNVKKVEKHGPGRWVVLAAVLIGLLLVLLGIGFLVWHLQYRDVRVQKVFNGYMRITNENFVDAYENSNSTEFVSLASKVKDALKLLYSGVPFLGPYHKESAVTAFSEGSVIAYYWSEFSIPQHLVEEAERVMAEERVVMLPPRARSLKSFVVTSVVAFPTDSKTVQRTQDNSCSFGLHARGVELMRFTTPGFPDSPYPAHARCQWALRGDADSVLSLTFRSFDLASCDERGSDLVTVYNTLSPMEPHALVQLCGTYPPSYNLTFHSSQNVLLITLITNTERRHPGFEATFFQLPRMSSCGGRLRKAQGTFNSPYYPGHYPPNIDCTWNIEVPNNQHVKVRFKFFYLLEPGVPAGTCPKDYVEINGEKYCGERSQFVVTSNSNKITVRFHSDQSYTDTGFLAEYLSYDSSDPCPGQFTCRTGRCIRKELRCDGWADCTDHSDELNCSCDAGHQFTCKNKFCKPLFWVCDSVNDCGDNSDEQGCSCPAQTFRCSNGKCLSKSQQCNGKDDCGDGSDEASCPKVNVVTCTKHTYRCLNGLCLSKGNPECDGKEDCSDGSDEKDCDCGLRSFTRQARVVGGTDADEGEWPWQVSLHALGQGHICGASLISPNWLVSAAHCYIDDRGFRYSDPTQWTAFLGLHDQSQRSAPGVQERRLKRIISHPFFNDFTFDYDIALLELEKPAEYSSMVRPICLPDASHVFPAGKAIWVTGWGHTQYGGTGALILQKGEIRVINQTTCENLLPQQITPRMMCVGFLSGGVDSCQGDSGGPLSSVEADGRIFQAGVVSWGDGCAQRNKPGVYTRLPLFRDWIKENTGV

matriptase activation [2] = molecular target: T2, matriptase activation (Homo sapiens, UniProt Q9Y5Y6); type: cell-based; details: 184 A1N4 intact cells; for Inhibition of matriptase activation by immunoblot, increasing concentrations: pH 6.0, mAb M24 and M69
T2 sequence (Q9Y5Y6 1-855): T1 sequence (Q9Y5Y6 1-855)

matriptase activation [3] = molecular target: T2, matriptase activation; test: Cell-free in vitro matriptase activation assay; type: biochemical; details: insoluble fractions of 184 A1N4 cell homogenates, pH 6.0
matriptase activation [4] = molecular target: T2, matriptase activation; test: Acid-induced matriptase activation in HaCaT keratinocytes, immunoblot; type: cell-based; details: HaCaT cells, pH 6.0, dose-dependent
prostasin activation = test: Acid-induced prostasin activation in HaCaT keratinocytes, immunoblot; type: cell-based, human; details: HaCaT cells, pH 6.0, dose-dependent

Row | Molecule | Inhibition of matriptase activation by immunoblot, increasing concentrations (matriptase activation [2]) | Inhibition of acid-induced activation of matriptase (matriptase activation [4]) | 120-kDa matriptase-HAI-1 complex (matriptase activation) by immunoblot (matriptase activation [2]; 5 μM compound, pH 6.0) | NaCl-mediated inhibition of acid-induced matriptase activation [1] | Inhibition of matriptase activation in the cell-free system (matriptase activation [3]) | Inhibition of acid-induced activation of prostasin (prostasin activation)
1 | Sodium chloride [NaCl] |  |  |  | dose-dependent manner |  | 
2 | Cc1nc(N2C(=O)C(O)=C(C(=O)c3ccccc3)C2c2cccs2)sc1C (centres unmarked) [compound 4, 4-benzoyl-1-(4,5-dimethylthiazol-2-yl)-3-hydroxy-5-(thiophen-2-yl)-1H-pyrrol-2(5H)-one] | same pattern of inhibition | same pattern of inhibition |  |  | suppress matriptase activation in a dose-dependent manner | same pattern of inhibition
3 | O=C(C1=C(O)C(=O)N(c2nccs2)C1c1cccs1)c1cccs1 (centres unmarked) [compound 1, 3-hydroxy-1-(thiazol-2-yl)-5-(thiophen-2-yl)-4-(thiophene-2-carbonyl)-1H-pyrrol-2(5H)-one] | same pattern of inhibition | same pattern of inhibition |  |  | suppress matriptase activation in a dose-dependent manner | same pattern of inhibition

More lines, main results first:

Row | Inhibition of matriptase activation by immunoblot, increasing concentrations (matriptase activation [2]) | Inhibition of acid-induced activation of matriptase (matriptase activation [4]) | 120-kDa matriptase-HAI-1 complex (matriptase activation) by immunoblot (matriptase activation [2]; 5 μM compound, pH 6.0) | Molecule | NaCl-mediated inhibition of acid-induced matriptase activation [1] | Inhibition of matriptase activation in the cell-free system (matriptase activation [3]) | Inhibition of acid-induced activation of prostasin (prostasin activation)
4 |  | clearly inhibited | no detectable 120-kDa complex | Cc1nc(N2C(=O)C(O)=C(C(=O)c3cccs3)C2c2cccs2)sc1C (centres unmarked) [compound 2, 1-(4,5-dimethylthiazol-2-yl)-3-hydroxy-5-(thiophen-2-yl)-4-(thiophene-2-carbonyl)-1H-pyrrol-2(5H)-one] |  | suppress matriptase activation in a dose-dependent manner | clearly inhibited
5 | same pattern of inhibition | same pattern of inhibition |  | Cc1nc(N2C(=O)C(O)=C(C(=O)c3cccs3)C2c2ccccc2)sc1C (centres unmarked) [compound 3, 1-(4,5-dimethylthiazol-2-yl)-3-hydroxy-5-phenyl-4-(thiophene-2-carbonyl)-1H-pyrrol-2(5H)-one] |  | suppress matriptase activation in a dose-dependent manner | same pattern of inhibition
